Data taken from PubChem BioAssay AID2060497 (Molecular Pharmacology Branch, DTP, NCI, 2025).

Test system: 317291-083-R-J1-PDC complex spheroids, viability
Test: Anticancer human tumor 317291-083-R-J1-PDC patient-derived soft tissue sarcoma cell line growth inhibition [GQUAD]
Settings: for IC50: curve of first compound; for viability, T/C: stronger effect = lower value
Excerpt: DNA G-quadruplex Stabilizer Agents in Combinations in Complex Spheroids
A high-throughput screen of multi-cell type tumor spheroids was designed to identify active combinations of DNA G-quadruplex stabilizer agents and targeted small molecules. Complex spheroids include a stromal component modeled by human endothelial cells (HUVEC) and fibroblasts modeled by human mesenchymal stem cells (MSCs). The concentration ranges selected for each drug and investigational agent were based upon clinically achievable concentrations if the clinical Cmax of the agent was known.
Compounds. The drugs and investigational agents: pidnarulex (CX-5461; NSC782164), APTO-253 (NSC789042), BRACO-19 (NSC847499), peposertib (NSC802822), ceralasertib (NSC780249), elimusertib (NSC800525), camonsertib (NSC841442), AZD-1390 (NSC803789), olaparib (NSC753686), talazoparib (NSC767125), ART-558 (NSC835418), sotorasib (NSC818433), MRTX-1133 (NSC836407), SN-38 (NSC673596), topotecan (NSC609699), etoposide (NSC141540), doxorubicin (NSC123127), gemcitabine (NSC613327), 5-fluorouracil (NSC19893), paclitaxel (NSC125973), vemurafenib (NSC761431), panobinostat (NSC761190), R-306465 (JNJ-16241199; NSC773264), adavosertib (NSC754352), TP-3654 (NSC805149), carboplatin (NSC241240), KSQ-4279 (NSC840948), and staurosporine (NSC755774) were obtained from the National Cancer Institute (NCI) Developmental Therapeutics Program Chemical Repository (34). The FDA-approved anticancer drug set is available from the NCI Developmental Therapeutics Program. […] The stock solutions were prepared in dimethyl sulfoxide (DMSO, Sigma-Aldrich, St. Louis, MO, cat. D2650) at 800-fold the tested concentration and stored at -70 degrees C prior to their use. All drugs and investigational agents were tested over a range starting from a high concentration at or near the clinical Cmax and decreasing in half-log increments. If the clinical Cmax for an agent had not been determined, the highest concentration tested was 10 microM.
2.3 Cell Culture. All cells were maintained in an incubator at 37 degrees C and 5% CO2 with 95% humidity. The PDC lines were cultured according to standard operating procedures established by the NCI PDMR. All PDCs were thawed and cultured in Matrigel-coated flasks prepared with a working solution of 1X Ham's F-12 nutrient mix, without supplementation (Invitrogen, cat. 11765054), 100 U/mL penicillin-streptomycin (Invitrogen, cat. 15140122), and 2.5% Matrigel (Corning Inc., cat. 354248) for the first three passages. The 857933-349-R-J2-PDC line was cultured in 6C/Colon 1B media, which includes advanced DMEM/F-12 (Thermo Fisher Scientific, cat. 12634028), 10 mM HEPES (Thermo Fisher Scientific, cat. 15630080), 1X GlutaMAX supplement (Thermo Fisher Scientific, cat. 35050061), 0.1 mg/mL primocin (InvivoGen, cat. ant-pm-2), 10% defined fetal bovine serum, heat inactivated (HyClone Laboratories Inc., cat. SH30070.03HI), 50% L-WRN conditioned media (ATCC, cat. CRL-3276), 1.25 mM N-Acetyl-L-cysteine (Sigma-Aldrich, cat. A9165), 10 mM nicotinamide (Sigma-Aldrich, cat. N0636), 1X B-27 supplement (Thermo Fisher Scientific, cat. 17504044), 1X N-2 supplement (Thermo Fisher Scientific, cat. 17502048), 10 microM Y-27632 dihydrochloride (Tocris Bioscience, cat. 1254), and 50 ng/mL human EGF recombinant protein (Thermo Fisher Scientific, cat. PHG0311). The 485176-168-R4-J1-PDC line was cultured in Panc media, which includes all 6C/Colon 1B media components plus 100 ng/mL human FGF-10 (Thermo Fisher Scientific, cat. 100-26), 500 nM SB-431542 (Selleckchem, cat. S1067), and gastrin (Tocris, cat. 3006).
[…]

[1] = second compound 0.0316 µM, first compound 0.0316 µM
[2] = second compound 0.0316 µM, first compound 0.316 µM
[3] = second compound 0.1 µM, first compound 0.0316 µM
[4] = second compound 0.1 µM, first compound 0.316 µM
[5] = second compound 0.316 µM, first compound 0.0316 µM
[6] = second compound 0.316 µM, first compound 0.316 µM
[7] = second compound 1 µM, first compound 0.0316 µM
[8] = second compound 1 µM, first compound 0.316 µM
[9] = second compound 3.16 µM, first compound 0.0316 µM
[10] = second compound 3.16 µM, first compound 0.316 µM
[11] = second compound 10 µM, first compound 0.0316 µM
[12] = second compound 10 µM, first compound 0.316 µM
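Also: spheroids exposed to compounds for one week before readout.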
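For viability, T/C in this document: percent viability relative to DMSO vehicle wells taken as 100%.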

For `Cn1ncnc1[C@H]1c2n[nH]c(=O)c3cc(F)cc(c23)N[C@@H]1c1ccc(F)cc1` + CN(C)c1ccc(Nc2c3ccc(NC(=O)CCN4CCCC4)cc3nc3cc(NC(=O)CCN4CCCC4)ccc23)cc1, the IC50 (second compound 0.0316 µM) was > 316 nM, the IC50 (second compound 0.1 µM) was > 316 nM and the IC50 (second compound 0.316 µM) was 205 nM. The IC50 (second compound 1 µM) was 14.9 nM, the IC50 (second compound 3.16 µM) was < 0.999 nM and the IC50 (second compound 10 µM) was < 0.999 nM. It also gave a viability, T/C (second compound 0.0316 µM, first compound 0.000999 µM) of 112%, a viability, T/C (second compound 0.0316 µM, first compound 0.00316 µM) of 94% and a viability, T/C (second compound 0.0316 µM, first compound 0.00999 µM) of 85%. For the same compound, the viability, T/C [1] was 74.7%, the viability, T/C (second compound 0.0316 µM, first compound 0.0999 µM) was 67.4% and the viability, T/C [2] was 66.6%. For the same compound, the viability, T/C (second compound 0.1 µM, first compound 0.000999 µM) was 115%, the viability, T/C (second compound 0.1 µM, first compound 0.00316 µM) was 87.6% and the viability, T/C (second compound 0.1 µM, first compound 0.00999 µM) was 90.3%. The viability, T/C [3] was 87.6%, the viability, T/C (second compound 0.1 µM, first compound 0.0999 µM) was 81.9% and the viability, T/C [4] was 65.3%. It also gave a viability, T/C (second compound 0.316 µM, first compound 0.000999 µM) of 68.9%, a viability, T/C (second compound 0.316 µM, first compound 0.00316 µM) of 79.3% and a viability, T/C (second compound 0.316 µM, first compound 0.00999 µM) of 72.8%. For the same compound, the viability, T/C [5] was 61.9%, the viability, T/C (second compound 0.316 µM, first compound 0.0999 µM) was 60.5% and the viability, T/C [6] was 44.6%. It also gave a viability, T/C (second compound 1 µM, first compound 0.000999 µM) of 54.3%, a viability, T/C (second compound 1 µM, first compound 0.00316 µM) of 49.3% and a viability, T/C (second compound 1 µM, first compound 0.00999 µM) of 62.1%. It also gave a viability, T/C [7] of 34.1%, a viability, T/C (second compound 1 µM, first compound 0.0999 µM) of 38.2% and a viability, T/C [8] of 47.9%. For the same compound, the viability, T/C (second compound 3.16 µM, first compound 0.000999 µM) was 35.7%, the viability, T/C (second compound 3.16 µM, first compound 0.00316 µM) was 24% and the viability, T/C (second compound 3.16 µM, first compound 0.00999 µM) was 24.9%. It also gave a viability, T/C [9] of 18.5%, a viability, T/C (second compound 3.16 µM, first compound 0.0999 µM) of 28.6% and a viability, T/C [10] of 17.7%. For the same compound, the viability, T/C (second compound 10 µM, first compound 0.000999 µM) was 9.05%, the viability, T/C (second compound 10 µM, first compound 0.00316 µM) was 13.8% and the viability, T/C (second compound 10 µM, first compound 0.00999 µM) was 8.55%. It also gave a viability, T/C [11] of 12.2%, a viability, T/C (second compound 10 µM, first compound 0.0999 µM) of 5.71% and a viability, T/C [12] of 8.04%.

With `COc1ccc([C@@H](O)c2cc(-c3ncnc4cc(N5CCOCC5)ccc34)c(F)cc2Cl)nn1` + Cc1cnc(CNC(=O)c2c(=O)c3ccc(N4CCCN(C)CC4)nc3n3c2sc2ccccc23)cn1 the IC50 (second compound 0.0316 µM) was 2030 nM, the IC50 (second compound 0.1 µM) was 163 nM and the IC50 (second compound 0.316 µM) was 61.9 nM. The IC50 (second compound 1 µM) was < 31.6 nM, the IC50 (second compound 3.16 µM) was < 31.6 nM and the IC50 (second compound 10 µM) was < 31.6 nM. For the same compound, the viability, T/C [1] was 108%, the viability, T/C (second compound 0.0316 µM, first compound 0.1 µM) was 92.1% and the viability, T/C [2] was 68.2%. The viability, T/C (second compound 0.0316 µM, first compound 1 µM) was 66.6%, the viability, T/C (second compound 0.0316 µM, first compound 3.16 µM) was 41.5% and the viability, T/C (second compound 0.0316 µM, first compound 10 µM) was 30.7%. For the same compound, the viability, T/C [3] was 85.9%, the viability, T/C (second compound 0.1 µM, first compound 0.1 µM) was 50.3% and the viability, T/C [4] was 49.4%. For the same compound, the viability, T/C (second compound 0.1 µM, first compound 1 µM) was 35.1%, the viability, T/C (second compound 0.1 µM, first compound 3.16 µM) was 24.1% and the viability, T/C (second compound 0.1 µM, first compound 10 µM) was 31.8%. It also gave a viability, T/C [5] of 58.2%, a viability, T/C (second compound 0.316 µM, first compound 0.1 µM) of 42.9% and a viability, T/C [6] of 38.1%. It also gave a viability, T/C (second compound 0.316 µM, first compound 1 µM) of 22.4%, a viability, T/C (second compound 0.316 µM, first compound 3.16 µM) of 24.2% and a viability, T/C (second compound 0.316 µM, first compound 10 µM) of 19.8%. For the same compound, the viability, T/C [7] was 41%, the viability, T/C (second compound 1 µM, first compound 0.1 µM) was 25.3% and the viability, T/C [8] was 19.6%. It also gave a viability, T/C (second compound 1 µM, first compound 1 µM) of 23.4%, a viability, T/C (second compound 1 µM, first compound 3.16 µM) of 33.7% and a viability, T/C (second compound 1 µM, first compound 10 µM) of 22.7%. It also gave a viability, T/C [9] of 40.1%, a viability, T/C (second compound 3.16 µM, first compound 0.1 µM) of 41.4% and a viability, T/C [10] of 19.8%. For the same compound, the viability, T/C (second compound 3.16 µM, first compound 1 µM) was 20.6%, the viability, T/C (second compound 3.16 µM, first compound 3.16 µM) was 23% and the viability, T/C (second compound 3.16 µM, first compound 10 µM) was 16.9%. The viability, T/C [11] was 19.1%, the viability, T/C (second compound 10 µM, first compound 0.1 µM) was 40.8% and the viability, T/C [12] was 17.7%. It also gave a viability, T/C (second compound 10 µM, first compound 1 µM) of 17.3%, a viability, T/C (second compound 10 µM, first compound 3.16 µM) of 18.6% and a viability, T/C (second compound 10 µM, first compound 10 µM) of 19.9%.
